Source: patent EP0713876A1, “Triazine derivative, chymase activity inhibitor and nitric oxide production inhibitor” (Wakamoto Pharmaceutical Co., Ltd., priority 1994, dated 1996)
Marks after values point to notes of the source that are not given here.

Each molecule was assayed on mouse macrophage cell line, RAW264 (assay: Inhibition of LPS-induced nitric oxide (NO) production, nitrite by Griess reaction). Details: 10⁻⁵ M test compound, RAW264, 1 µg/ml LPS, 36hr.
Assay type: cell-based
Protocol: The mouse macrophage cell line, RAW264, obtained from the Riken Cell Bank, was cultured in RPMI-1640 medium without phenol red containing 10% inactivated fetal bovine serum and 100 µg/ml kanamycin at 37°C in 5% CO₂ in air. Cells were seeded into 96-well tissue culture plates (6x10⁴ cells/well) and allowed to adhere for 4 hr at 37 °C . To assess the effects of test compounds on induction of NO production, 100 µl of fresh culture medium containing them were added to the medium, followed by the additions of 1 µg/ml of LPS (E Coli 055, derived from B5 cell line, DIFCO Co.) to activate macrophage cells. At the same time, cultivation was conducted in the presence or absence of a test compound.
Since the measurement of NO is difficult due to the unstableness of NO, the nitrite ion (NO₂⁻) which is the oxidation product of NO was measured.
Productions of NO were assayed by measuring the concentrations of NO₂⁻ in culture medium by the Griess reaction by the method of Green et al. (Anal. Biochem., 126, 131-138, 1982). Nitrite accumulation in the cell culture medium was measured 36hr after LPS-stimulations. One hundred microliters of Griess reagents (1% sulfanylamide and 0.1% N-1-naphthylethylenediamine dichloride in 5% phosphoric acid) were added to 100 µl of cell culture medium at a room temperature. After 10 min, the optical densities at 550 nm (OD550) were measured by using a microplate reader.
In unstimulated RAW264 macrophages, NO₂⁻ production for 36 hr was not determined in the presence or absence of test compounds. Calculations of the inhibition% of NO production by the test compounds were carried out as depicted below. Inhibition% = (1-a/b)x100(%) [formula] a; the OD550 in presence of test compound b; the OD550 in absence of test compound IC₅₀ values were expressed as the concentrations (M) of test compounds producing 50% inhibition.

Compound	Inhibition (%) of NO production at the concentration of 10⁻⁵ M
Cc1ncn2c([S+]([O-])Cc3ccc(Cl)cc3)nnc(O)c12 (stereo not drawn) [Example 33, 4-(4-chlorobenzylsulfinyl)-1-hydroxy-8-methyl imidazo [1,5-d][1.2.4]triazine]	4 * %
[O-][S+](Cc1ccc(Cl)cc1)c1nnc(OCc2ccc(Cl)cc2)c2nccn12 (stereo not drawn) [Example 35, 8-(4-chlorobenzyloxy)-5-(4-chlorobenzylsulfinyl)imidazo[1,2-d][1.2.4]triazine]	20 * %
[O-][S+](Cc1ccc(Cl)cc1)c1nnc(OCc2ccc(Cl)cc2)c2cccn12 (stereo not drawn) [Example 36, 1-(4-chlorobenzyloxy)-4-(4-chlorobenzylsulfinyl)pyrrolo [1,2-d][1.2.4]triazine]	31 * %
[O-][S+](Cc1cccc(Cl)c1)c1nnc(OCc2cccc(Cl)c2)c2nccn12 (stereo not drawn) [Example 40, 8-(3-chlorobenzyloxy)-5-(3-chlorobenzylsulfinyl)imidazo[1,2-d][1.2.4]triazine]	32 * %
N#Cc1ccc(COc2nnc([S+]([O-])Cc3ccc(C#N)cc3)n3ccnc23)cc1 (stereo not drawn) [Example 41, 8-(4-cyanobenzyloxy)-5-(4-cyanobenzylsulfinyl)imidazo[1,2-d][1.2.4]triazine]	49 * %
[O-][S+](Cc1ccc(C(F)(F)F)cc1)c1nnc(OCc2ccc(C(F)(F)F)cc2)c2nccn12 (stereo not drawn) [Example 42, 8-(4-trifluoromethylbenzyloxy)-5-(4-trifluoromethylbenzylsulfinyl)imidazo[1,2-d][1.2.4]triazine]	8 * %

These molecules were tested on ICR mice (assay: Single-dose toxicity). Details: male ICR mice, p.o. 500 mg/kg single dose, observed for 14 days.
Assay type: in vivo
Protocol: Ten Male ICR mice (4-week-old) were housed in each group. Test compounds were suspended in 0.5% aqueous sodium methyl cellulose, and then administered p.o. at the dose of 500 mg/kg to mice. Animals were then observed for 14 days and the mortality rate was determined. […]

Compound	The number of death/ The number of animal
[O-][S+](Cc1ccc(Cl)cc1)c1nnc(O)c2cccn12 (stereo not drawn) [Example 29, 4-(4-chlorobenzylsulfinyl)-1-hydroxypyrrolo[1,2-d][1.2.4]triazine]	0/10
[O-][S+](Cc1ccc(Cl)cc1)c1nnc(O)c2nccn12 (stereo not drawn) [Example 31, 5-(4-chlorobenzylsulfinyl)-8-hydroxyimidazo[1,2-d][1.2.4]triazine]	0/10
[O-][S+](Cc1ccc(Cl)cc1)c1nnc(OCc2ccc(Cl)cc2)c2nccn12 (stereo not drawn) [Example 35, 8-(4-chlorobenzyloxy)-5-(4-chlorobenzylsulfinyl)imidazo[1,2-d][1.2.4]triazine]	0/10
Cc1ncn2c([S+]([O-])Cc3ccc(Cl)cc3)nnc(OCc3ccc(Cl)cc3)c12 (stereo not drawn) [Example 53, 1-(4-chlorobenzyloxy)-4-(4-chlorobenzylsulfinyl)-8-methylimidazo[1,5-d][1.2.4]triazine]	0/10
Cc1ncn2c([S+]([O-])Cc3ccc(Cl)cc3)nn(Cc3ccc(Cl)cc3)c(=O)c12 (stereo not drawn) [Example 54, 2-(4-chlorobenzyl)-4-(4-chlorobenzylsulfinyl)-8-methyl imidazo[1,5-d][1.2.4]triazine-1(2H)-one]	0/10

Each molecule was assayed against T1, rat mast cell chymase (Rattus norvegicus, UniProt P09650) (assay: Inhibition of chymase activity (chromogenic substrate N-Suc-Ala-Ala-Pro-Phe-p-nitroanilide)). Details: 10⁻⁵ M test compound.
T1 construct: Chymase was partially purified from rat peritoneal cavity mast cells; from tissue; host or cells: peritoneal cavity mast cells of male Sprague Dawley rats
T1 sequence (P09650 21-260): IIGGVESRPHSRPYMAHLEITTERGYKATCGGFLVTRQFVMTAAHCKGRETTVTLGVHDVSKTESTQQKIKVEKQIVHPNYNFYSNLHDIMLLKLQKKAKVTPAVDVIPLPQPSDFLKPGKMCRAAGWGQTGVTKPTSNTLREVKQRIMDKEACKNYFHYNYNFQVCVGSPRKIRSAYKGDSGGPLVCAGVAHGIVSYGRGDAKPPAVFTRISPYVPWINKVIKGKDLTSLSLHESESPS
Assay type: biochemical
Protocol: Mast cells were obtained from the peritoneal cavity of male Sprague Dawley(SD) rats by the method of Graziano et al. (Methods in Enzymol., 162, 501-514, 1988), layered on 75% Percoll (Pharmacia Biotech), and then purified to over 90% purity by centrifugation at 150xG for 15 min.
Chymase was partially purified from rat peritoneal cavity mast cells by the method of Kido et al. (Arch. Biochem. Biophys., 239, 436-443, 1985). Purified mast cells were quickly frozen and thawed several times and homogenized in a low ionic strength-buffer (pH6.5). The homogenate was centrifuged at 20,000xG for 20 min. The precipitate was re-homogenized in a high ionic strength-buffer (pH8.0) and cetrifuged at 20,000xG for 20 min. The supernatant was recovered and the enzyme was extracted. From the crude extract, chymase was partially purified by an Octyl-Sepharose CL-4B (Pharmacia Biotech) hydrophobic chromatography.
Ten microliters of test compounds in dimethyl sulfoxide (DMSO) were mixed with 250 µl of 60 mM Tris-HCl buffer (pH8.0) containing 0.2 M NaCl and 250 µl of 1 µg/ml chymase in buffer. The mixtures were pre-incubated for 5 min. at 37°C . After the addition of 500 µl of 0.6 mM chromogenic substrate, N-Suc-Ala-Ala-Pro-Phe-p-nitroanilide (Sigma), the reactions were carried out for 30 min. at 37 °C , and then stopped by the addition of 50 µl of 0.75 M acetic acid. The absorbances at 405nm were measured in a spectrophotometer, and the amount of p-nitroaniline released from the substrate was measured.
Calculations of the inhibition% of chymase by test compounds were carried out as below. Inhibition% = {1-(a-a' )/(b-b' ) } x 100 (%) [formula] a; the absorbance in presence of test compound. a'; the absorbance of non-reaction in presence of test compound. b; the absorbance in absence of test compound. b'; the absorbance of non-reaction in absence of test compound.
IC₅₀ values were expressed as the concentrations (M) of test compounds producing 50% inhibition.

Compound	Inhibition (%) of chymase at a concentration of 10⁻⁵ M
CC(C)c1ccc(COc2nnc([S+]([O-])Cc3ccc(C(C)C)cc3)n3ccnc23)cc1 (stereo not drawn) [Example 38, 8-(4-isopropylbenzyloxy)-5-(4-isopropylbenzylsulfinyl) imidazo[1,2-d][1,2,4]triazine]	41% *
[O-][S+](Cc1ccc(C(F)(F)F)cc1)c1nnc(OCc2ccc(C(F)(F)F)cc2)c2nccn12 (stereo not drawn) [Example 42, 8-(4-trifluoromethylbenzyloxy)-5-(4-trifluoromethylbenzylsulfinyl)imidazo[1,2-d][1.2.4]triazine]	11%*
CCOc1nnc([S+]([O-])CC)n2ccnc12 (stereo not drawn) [Example 46, 8-ethoxy-5-ethylsulfinylimidazo[1,2-d][1.2.4]triazine]	5 % *
[O-][S+](CCCCl)c1nnc(OCCCCl)c2nccn12 (stereo not drawn) [Example 51, 8-(3-chloropropoxy)-5-(3-chloropropyl)sulfinylimidazo[1,2-d][1.2.4]triazine]	50% *
CCOC(=O)COc1nnc([S+]([O-])CC(=O)OCC)n2ccnc12 (stereo not drawn) [Example 52, 8-ethoxycarbonylmethyloxy-5-ethoxycarbonylmeth ylsulfinylimidazo[1,2-d][1.2.4]triazine]	39% *
CCOc1nnc([S+]([O-])CC)n2cnc(C)c12 (stereo not drawn) [Example 55, 1-ethoxy-4-ethylsulfinyl-8-methylimidazo[1,5-d][1.2.4]triazine]	22% *
CCn1nc([S+]([O-])CC)n2cnc(C)c2c1=O (stereo not drawn) [Example 56, 2-ethyl-4-ethylsulfinyl-8-methylimidazo[1,5-d][1.2.4]triazine-1(2H)-one]	8% *
